{"source": "patent US7592503B2", "about": "“Mammalian telophase oocyte enucleation” (Trustees of Tufts College, priority 1998, dated 2009)", "key": {"[1]": {"tested_on": "mouse metaphase II oocytes", "test": "Treatment-induced nuclear chromatin enucleation of activated oocytes (H33342 staining, fluorescence microscopy)", "format": "cell-based", "conditions": "for rate of treatment-induced chromatin enucleation: ethanol- or ionomycin-activated B6D2 oocytes, Taxol 5 μg/ml, Cycloheximide 10 μg/ml, Demecolcine 0.4 μg/ml in PBS+10% FBS, 0.5-1.5 h post activation; for rate of treatment-induced chromatin enucleation (range in parentheses): same treatments, range printed in parentheses", "source_text": "Advances in somatic cell nuclear transfer (NT) methodology have seen the procession of cloned sheep, cows, mice and goats. Despite the clear potential use of this technology for genetic manipulations, the success rates remain woefully low. The limitations associated with nuclear transfer include the selection and preparation of competent donor cytoplasts. The cytoplasm plays a vital role in genome reprogramming and reactivation and therefore manipulations that compromise oocyte developmental competence are detrimental to the success of nuclear transfer. The present study was directed towards determining alternative methods to more efficiently prepare competent cytoplasts for nuclear transfer procedures. In experiment 1, in vivo-produced mouse metaphase II oocytes (B6D2, aguti, recovered at 16-20 h post hCG) were activated by exposure to either 7% ethanol or 2 μm ionomycin in PBS+10% FBS (5 min.). At the onset of initial second polar body formation (10-15 min. post activation) and extrusion (anaphase/telophase stage), oocytes were randomly allocated to control (cultured 0.5-1.5 h) or incubated with Taxol® (5 μg/ml), Cycloheximide (10 μg/ml) or in Demecolcine (0.4 μg/ml) in PBS+10% FBS until the second polar body was extruded (0.5-1.5 h post activation) to induce nuclear chromatin enucleation. Oocytes were stained (H33342, 5 μg/ml) to confirm the extent of nuclear chromatin enucleation using fluorescence microscopy. […] In experiment 2, Demecolcine-induced enucleated cytoplasts were used for nuclear transfer recipients. Donor nuclei were prepared from cumulus cells (Black Swiss) by partial lysis (1% sodium citrate) followed by aspiration using the injection pipette (7 um). Donor nuclei were injected into cytoplasts pretreated with Cytochalasin-B (5 μg/ml, 15 min.). Reconstructed NT embryos were subsequently co-cultured (72-96 h) with oviductal cells in drops of M-199+10% FBS. The cleavage rate was 70% (85/121) and the rate of blastocyst formation was 42% (51/121). Pregnancies were established in 2/3 recipients (CD1, white) following uterine embryo transfer (10 embryos/recipient). A total of 14 black female pups were born (47%, 14/30), seven of which were stillborn from 1 recipient and the other seven were born live (23%, 7/30) but 3 were cannibalized within 24 h. The 4 cloned pups were normal and healthy, and their fertility is being assessed. […] Moreover, cytoplasts derived from this enucleation procedure are competent to support genome reactivation and fetal development to term. This technically simple approach may provide a more efficient method to produce large numbers of cytoplasts for cloning procedures."}, "[2]": {"tested_on": "mouse oocytes", "test": "Activation of metaphase II oocytes to Telophase II stage in vitro", "format": "cell-based", "conditions": "ionomycin 4 μM, 5 min; 3 replicate experiments", "description": "Oocytes were collected from superovulated mice by flushing oviducts to collect metaphase II stage oocytes. Oocytes were then activated by one of two methods to reach the Telophase II state in vitro: culture-induced Ca^2+ activation or ionomycin activation (4 μM, 5 min), and enucleated. Karyoplasts were prepared from cumulus cells (natural G0 stage) and nuclear transfer was conducted followed by electrical fusion with Telophase II cytoplasts."}}}
{"smiles": "CN[C@H]1CCc2cc(OC)c(OC)c(OC)c2-c2ccc(OC)c(=O)cc21", "note": "[Demecolcine]", "values": [{"measurement": "rate of treatment-induced chromatin enucleation", "setting": "[1]", "result": 54, "unit": "%"}, {"measurement": "rate of treatment-induced chromatin enucleation (range in parentheses)", "setting": "[1]", "result": "27-70%"}]}
{"smiles": "C[C@H](CCC(=O)O)C[C@H](C)C[C@H](C)C(=O)/C=C(\\O)[C@H](C)C[C@H](C)C/C=C/[C@@H](C)[C@@H](O)[C@@H](C)[C@@H](O)C[C@@H]1CC[C@@](C)([C@H]2CC[C@@](C)([C@@H](C)O)O2)O1", "note": "[Ionomycin, ionomycin]", "values": [{"measurement": "Activation, Number (activated/treated oocytes)", "setting": "[2]", "result": "46/50"}, {"measurement": "Activation, Percent", "setting": "[2]", "result": 92, "unit": "%"}]}
{"smiles": "CC(=O)O[C@H]1C(=O)[C@@]2(C)[C@H]([C@H](OC(=O)c3ccccc3)[C@]3(O)C[C@H](OC(=O)[C@H](O)[C@@H](NC(=O)c4ccccc4)c4ccccc4)C(C)=C1C3(C)C)[C@]1(OC(C)=O)CO[C@@H]1C[C@@H]2O", "note": "[Taxol®, paclitaxel]", "values": [{"measurement": "rate of treatment-induced chromatin enucleation", "setting": "[1]", "result": 3.6, "unit": "%"}, {"measurement": "rate of treatment-induced chromatin enucleation (range in parentheses)", "setting": "[1]", "result": "0-10%"}]}
{"smiles": "C[C@@H]1C[C@@H]([C@H](O)CC2CC(=O)NC(=O)C2)C(=O)[C@@H](C)C1", "note": "[Cycloheximide]", "values": [{"measurement": "rate of treatment-induced chromatin enucleation", "setting": "[1]", "result": 16.3, "unit": "%"}, {"measurement": "rate of treatment-induced chromatin enucleation (range in parentheses)", "setting": "[1]", "result": "0-24%"}]}
